# Source: patent US7049282B2, “Inhibition of complement action” (Duke University, priority 1999, dated 2006)
# System: complement binding to the sheep erythrocyte targets
# Test: standard assay of inhibition of complement binding (Miletic et al): sheep erythrocytes sensitized with rabbit antibody, C8D human serum
# Type: biochemical
# Description: In addition to the peptides and derivatives described above, the invention also relates to mimetics of the peptides that have the above-described complement blocking function. The mimetics can be identified using protocols available in the art, including those described by Miletic et al, J. Immunology 156:749 (1996)) which are based on the binding of complement to antibody-sensitized red blood cells and on the binding of complement to solid phase immune complexes. As described below, these protocols can be used to identify complement-blocking peptides and derivatives as well.
# Peptides, derivatives and mimetics that block complement function can be identified by incubating a target for an active complement protein, for example, antibody-coated particles (e.g., antibody-sensitized red blood cells) or immune complexes (e.g., bovine serum albumin-anti-bovine serum complexes) bound to a solid support, with the a complement protein or a complement activating system (e.g., containing C3 or C4 or mixtures of complement proteins such as found in serum (e.g., C8 or C9 deficient serum)), in the presence and in the absence of the test agent (peptide, derivative or mimetic). […] The amount of binding can be determined using any of a variety of approaches, including using radiolabeled anti-complement protein IgG. […]
sequence,measurement,setting,value
WESNGQPENN,activity in inhibiting complement binding,IgG fragments and peptides isolated from digests,highly active
same,activity in complement inhibition,synthesized peptides,highly active
